This data set can be described thus: Photophysical properties of cyanine dyes in dimethyl sulfoxide (DU 800 spectrophotometer). As to conditions: for Excitation (nm): absorption. Format: physicochemical. The text has this:
The photophysical properties of a variety of cyanine dyes in dimethyl sulfoxide has been measured by the DU 800 spectrophotometer.

Consider `COCCOCCOCCOCC[N+]1=C(/C=C/C=C/C=C2/N(CCOCCOCCOCCN)c3ccccc3C2(C)C)C(C)(C)c2ccccc21` [A2], for which the “Emission (nm)” value is 667 nm, the “Extinction Coefficient” value is 1.63 × 10^5 and the “Excitation (nm)” value worked out at 649 nm.
As to `C#CCOCCOCCOCCOCCOc1ccc2c(c1)C(C)(C)\C(=C/C=C\C=C/C1=[N+](C)c3ccc(OCCOCCOCCOCCOC)cc3C1(C)C)N2C` [B1], the “Emission (nm)” value is reported as 699 nm, the “Extinction Coefficient” value was 6.12 × 10^4 and the “Excitation (nm)” value is 649 nm.
For `CC1(C)C(/C=C/C=C/C=C2\N(CCOCCOCCOCCOCCC(=O)NCCN3C(=O)C=CC3=O)c3ccccc3C2(C)C)=[N+](CCOCCOCCOCCN=[N+]=[N-])c2ccccc21` [D3] the same measures were 667 nm, 6.94 × 10^4 and 649 nm.
The corresponding values for `COCCOCCOCCOCC[N+]1=C(/C=C/C=C/C=C2\N(CCOCCOCCOCCOCCC(=O)NCCC(=O)N3Cc4ccccc4C#Cc4ccccc43)c3ccccc3C2(C)C)C(C)(C)c2ccccc21` [D4] are 667 nm, 6.42 × 10^4 and 649 nm.
For `COCCOCCOCCOCC[n+]1c(/C=C/C=C/C=C2\Sc3ccccc3N2CCOCCOCCOCCC(=O)O)sc2ccccc21` [E1] the same measures were 682 nm, 7.11 × 10^4 and 661 nm.
As for `O=C(O)CCOCCOCCOCCN1\C(=C/C=C\C=C\c2sc3ccccc3[n+]2CCOCCOCCOCCC(=O)O)Sc2ccccc21` [E2], the “Emission (nm)” value amounted to 682 nm, the “Extinction Coefficient” value is on record as 7.31 × 10^4 and the “Excitation (nm)” value is recorded as 661 nm.
The corresponding values for `CC1(C)C(/C=C/C2=C(Cl)C(=C/C=C3/N(CCOCCOCCOCCN=[N+]=[N-])c4ccccc4C3(C)C)/CCC2)=[N+](CCOCCOCCOCCN=[N+]=[N-])c2ccccc21` [F1] are 817 nm, 1.16 × 10^5 and 785 nm.
For `COCCOCCOCCOCC[N+]1=C(/C=C/C=C/C=C2\Sc3ccccc3N2CCOCCOCCOCCC(=O)O)C(C)(C)c2ccccc21` [G1] the same measures were 685 nm, 7.65 × 10^4 and 661 nm.
The corresponding values for `COCCOCCOCCOCCN1/C(=C/C=C/C=C/C2=[N+](CCOCCOCCOCCN=[N+]=[N-])c3ccccc3C2(C)C)Sc2ccccc21` [G2] are 671 nm, 4.23 × 10^4 and 652 nm.

Source of the values: patent US9862682B2, “Functionalized pegylated cyanine compounds, pharmaceutical compositions, and methods of use thereof” (BroadPharm, priority 2016, dated 2018).
